# Test results taken from patent publication US20080089957A1, “Monocotyledon plant indications extract compositions, method of preparation and pharmaceutical compositions containing them” (priority 2006, published 2008).
# Where a name gives a salt, the structure may show the parent alone. Read-outs that look alike come from different tables or passages of the source.
# Columns and labels:
# xanthine oxidase = xanthine oxidase (UniProt P80457); assay: Xanthine oxidase inhibitory activity assay, spectrophotometric at 295 nm; type: biochemical
# Description: A reaction mixture containing 200 mM sodium pyrophosphate buffer (pH 7.5), 100 mM xanthine and 0.05 unit xanthine oxidase was prepared. […] All determinations were performed in triplicate and samples were tested further to ascertain the corresponding IC50 values.
# phosphodiesterases = assay: Phosphodiesterase inhibitory activity assay, bis(p-nitrophenyl phosphate), 405 nm; type: biochemical
# Description: The inhibitory effect on phosphodiesterases was measured spectrophotometrically at 405 nm. A reaction mixture containing 300 μl of 100 mM Tris buffer (pH 8.9), 600 μl of 1 mM Bis(p-nitrophenyl phosphate), 100 μl of sample and 100 μl of enzyme was used for analysis. The absorption increments at 405 nm indicated formation of […] at room temperature, and the initial velocity was calculated. The inhibitory activity of phosphodiesterases was assessed as % inhibition=(1−β/α)×100, where α is the change in absorbance per minute without the sample (A blank with enzyme−A blank without enzyme), and β is the change in absorbance per minute with the sample (A test with enzyme−A test without enzyme).
# [1] = Table 3, triplicate, read-out: IC50 ± SEM
# [2] = unit inferred, read-out: IC50 on xanthine oxidase
IC50 (xanthine oxidase; [1]) [µM],IC50 (xanthine oxidase; [2]) [µM],SMILES,further results
> 200,–,"Nc1nc(N)c2[nH]cnc2n1 [2,6-Diaminopurine]",–
> 200,–,Nc1nc(Cl)c2nc[nH]c2n1 [2-Amino-6-chloropurine],–
> 200,–,Nc1ncc2[nH]cnc2n1 [2-Aminopurine],–
–,30.26 ± 0.23,"Nc1ncnc2[nH]ncc12 [4-Aminopyrazolo[3,4-d]pyrimidine]",–
> 200,–,"Cc1cc2nc[nH]c2cc1C [5,6-Dimethylbenzimidazole]",–
> 200,–,Cc1ccc2[nH]cnc2c1 [5-Methylbenzimidazole],–
–,86.84 ± 0.51,O=[N+]([O-])c1ccc2[nH]cnc2c1 [5-Nitrobenzimidazole nitrate salt],–
> 200,–,COc1nc(N)nc2nc[nH]c12 [6-O-Methylguanine],–
–,92.42 ± 0.62,Nc1nc2nc[nH]c2c(=S)[nH]1 [6-Thioguanine],–
–,–,O=C(O)/C=C(\CC(=O)O)C(=O)O [trans-aconitic acid],phosphodiesterase inhibitory activity (phosphodiesterases): phosphodiesterase inhibitor
